The results in this text go back to ChEMBL document CHEMBL5154879, “Induction of Genes Implicated in Stress Response and Autophagy by a Novel Quinolin-8-yl-nicotinamide QN523 in Pancreatic Cancer” (J Med Chem, 2022).

Calls of active or inactive are those of the source. The calls are words filed in the database; no cut-off is given here.

Data set [1] has as its system MIA PaCa-2. Description: Cytotoxicity against human MIA PaCa-2 cells assessed as inhibition of cell growth incubated for 72 hrs by MTT assay. The format is functional, cell-based. Particulars: MIA PaCa-2, 72 h. (Tetrazolium dyes change colour on reduction, which living cells bring about.)
Data set [2] concerns MIA PaCa-2. Put plainly: Induction of autophagy in human MIA PaCa-2 cells assessed as accumulation of WIP11 marker gene expression at […] incubated for 72 hrs by Western blot analysis. The format is functional, cell-based. On the technique in general: Immunoblotting shows a protein as a band on a membrane.
Data set [3] relates to MIA PaCa-2. Description: Induction of autophagy in human MIA PaCa-2 cells assessed as accumulation of GABARAPL1 marker gene expression at […] incubated for 72 hrs by Western blot analysis. It is filed as functional, cell-based.
The subject of data set [4] is MIA PaCa-2. Put plainly: Induction of autophagy in human MIA PaCa-2 cells assessed as accumulation of LC3B marker gene expression at […] incubated for 72 hrs by Western blot analysis. The format is functional, cell-based.
Data set [5] has as its system MIA PaCa-2. Put plainly: Induction of apoptosis in human MIA PaCa-2 cells assessed as live cells at 0.5 uM incubated for 24 hrs by Annexin V-FITC/PI staining based flow cytometry analysis (reference value: 90.2%). The format is functional. In general terms: Flow cytometry measures light scatter and fluorescence of single cells or particles in a stream.
Data set [6] relates to MIA PaCa-2. Put plainly: Induction of apoptosis in human MIA PaCa-2 cells assessed as early apoptotic cells at 0.1 uM incubated for 48 hrs by Annexin V-FITC/PI staining based flow cytometry analysis (reference value: 1.8%). It is filed as functional.
Data set [7] relates to MIA PaCa-2. Description: Induction of cell cycle arrest in human MIA PaCa-2 cells assessed as accumulation of cells in G0/G1 phase at 0.1 uM incubated for 24 hrs by RNase/propidium iodide staining based flow cytometry analysis (reference value: 64.3%). It is filed as functional.
The subject of data set [8] is MIA PaCa-2. Put plainly: Induction of apoptosis in human MIA PaCa-2 cells assessed as necrotic cells at 0.1 uM incubated for 48 hrs by Annexin V-FITC/PI staining based flow cytometry analysis (reference value: 1.07%). The format is functional.
In data set [9] the test system is MIA PaCa-2. Put plainly: Induction of apoptosis in human MIA PaCa-2 cells assessed as necrotic cells at 0.5 uM incubated for 24 hrs by Annexin V-FITC/PI staining based flow cytometry analysis (reference value: 2.7%). It is filed as functional.
Data set [10] relates to MIA PaCa-2. Put plainly: Induction of apoptosis in human MIA PaCa-2 cells assessed as early apoptotic cells at 0.5 uM incubated for 24 hrs by Annexin V-FITC/PI staining based flow cytometry analysis (reference value: 5.1%). It is filed as functional.
The subject of data set [11] is MIA PaCa-2. Put plainly: Induction of apoptosis in human MIA PaCa-2 cells assessed as late apoptotic cells at 0.1 uM incubated for 24 hrs by Annexin V-FITC/PI staining based flow cytometry analysis (reference value: 2.04%). The format is functional.
Data set [12] relates to MIA PaCa-2. Description: Induction of cell cycle arrest in human MIA PaCa-2 cells assessed as accumulation of cells at S phase at 0.1 uM incubated for 48 hrs by RNase/propidium iodide staining based flow cytometry analysis (Rvb =26.9 %). The format is functional.
A short description of data set [13]: Cytotoxicity against human HFF-1 cells assessed as inhibition of cell growth incubated for 72 hrs by MTT assay. The format is toxicity, cell-based.
Data set [14] relates to MIA PaCa-2. Put plainly: Induction of apoptosis in human MIA PaCa-2 cells assessed as late apoptotic cells at 0.1 uM incubated for 48 hrs by Annexin V-FITC/PI staining based flow cytometry analysis (reference value: 0.8%). It is filed as functional.
Data set [15] concerns MIA PaCa-2. Put plainly: Induction of apoptosis in human MIA PaCa-2 cells assessed as viable cells at 0.5 uM incubated for 48 hrs by Annexin V-FITC/PI staining based flow cytometry analysis (reference value: 96.3%). It is filed as functional. Particulars: read-out: Activity.
The subject of data set [16] is MIA PaCa-2. Description: Induction of apoptosis in human MIA PaCa-2 cells assessed as live cells at 0.1 uM incubated for 48 hrs by Annexin V-FITC/PI staining based flow cytometry analysis (reference value: 96.3%). The format is functional.
Data set [17] has as its system MIA PaCa-2. Description: Induction of apoptosis in human MIA PaCa-2 cells assessed as early apoptotic cells at 0.5 uM incubated for 48 hrs by Annexin V-FITC/PI staining based flow cytometry analysis (reference value: 1.8%). It is filed as functional.
The subject of data set [18] is MIA PaCa-2. Put plainly: Induction of cell cycle arrest in human MIA PaCa-2 cells assessed as accumulation of cells in G2/M phase at 0.1 uM incubated for 48 hrs by RNase/propidium iodide staining based flow cytometry analysis (reference value: 2.71%). It is filed as functional.
For data set [19], the system named is MIA PaCa-2. Put plainly: Induction of apoptosis in human MIA PaCa-2 cells assessed as necrotic cells at 0.5 uM incubated for 48 hrs by Annexin V-FITC/PI staining based flow cytometry analysis (reference value: 1.07%). It is filed as functional.
The subject of the next data set is PANC-1. Description: Cytotoxicity against human PANC-1 cells assessed as inhibition of cell growth incubated for 72 hrs by MTT assay. It is filed as functional, cell-based. Particulars: PANC-1, 72 h.
For data set [20], the system named is MIA PaCa-2. Description: Induction of apoptosis in human MIA PaCa-2 cells assessed as late apoptotic cells at 0.5 uM incubated for 48 hrs by Annexin V-FITC/PI staining based flow cytometry analysis (reference value: 0.8%). The format is functional.
Data set [21] has as its system MIA PaCa-2. Description: Induction of cell cycle arrest in human MIA PaCa-2 cells assessed as accumulation of cells in G0/G1 phase at 0.1 uM incubated for 48 hrs by RNase/propidium iodide staining based flow cytometry analysis (reference value: 70.4%). The format is functional.
For data set [22], the system named is MIA PaCa-2. Description: Induction of cell cycle arrest in human MIA PaCa-2 cells assessed as accumulation of cells in G2/M phase at 0.1 uM incubated for 24 hrs by RNase/propidium iodide staining based flow cytometry analysis (reference value: 8.11%). It is filed as functional.
Data set [23] can be described thus: Cytotoxicity against human HPDE cells assessed as inhibition of cell growth incubated for 72 hrs by MTT assay. It is filed as toxicity, cell-based.
Data set [24] concerns MIA PaCa-2. Put plainly: Induction of apoptosis in human MIA PaCa-2 cells assessed as viable cells at 0.1 uM incubated for 24 hrs by Annexin V-FITC/PI staining based flow cytometry analysis (reference value: 90.2%). It is filed as functional. Conditions: read-out: Activity.
The subject of data set [25] is MIA PaCa-2. Put plainly: Induction of cell cycle arrest in human MIA PaCa-2 cells assessed as accumulation of cells at S phase at 0.1 uM incubated for 24 hrs by RNase/propidium iodide staining based flow cytometry analysis (Rvb =27.6 %). It is filed as functional.
Data set [26] has as its system MIA PaCa-2. Description: Induction of apoptosis in human MIA PaCa-2 cells assessed as early apoptotic cells at 0.1 uM incubated for 24 hrs by Annexin V-FITC/PI staining based flow cytometry analysis (reference value: 5.1%). It is filed as functional.
Data set [27] can be described thus: Cytotoxicity against HEK293 cells assessed as inhibition of cell growth incubated for 72 hrs by MTT assay. The format is toxicity, cell-based. Conditions: human.
Data set [28] relates to MIA PaCa-2. Description: Induction of apoptosis in human MIA PaCa-2 cells assessed as late apoptotic cells at 0.5 uM incubated for 24 hrs by Annexin V-FITC/PI staining based flow cytometry analysis (reference value: 2.04%). The format is functional.
In data set [29] the test system is MIA PaCa-2. Put plainly: Induction of apoptosis in human MIA PaCa-2 cells assessed as necrotic cells at 0.1 uM incubated for 24 hrs by Annexin V-FITC/PI staining based flow cytometry analysis (reference value: 2.7%). It is filed as functional.

As for `CC1=C(CC(=O)O)c2cc(F)ccc2/C1=C\c1ccc([S+](C)[O-])cc1` (stereo not given), the half-maximal inhibitory concentration (IC50) in the data set on MIA PaCa-2 [1] came out at 300 µM. For the same compound, the outcome with MIA PaCa-2 [2], in the data set with MIA PaCa-2 [3] and in the data set with MIA PaCa-2 [4] was Active.

`Nc1ccn([C@@H]2O[C@H](CO)[C@@H](O)C2(F)F)c(=O)n1` [GEMCITABINE]: the Activity is 87.2% in the data set with MIA PaCa-2 [5]; 2.2% with MIA PaCa-2 [6]; 21.04% in the data set with MIA PaCa-2 [7]; 2.1% in the data set with MIA PaCa-2 [8]; 2.4% in the data set on MIA PaCa-2 [9]; 7.6% in the data set on MIA PaCa-2 [10]. The Activity turned out to be 4% in the data set on MIA PaCa-2 [11]; 89.3% in the data set on MIA PaCa-2 [12]; 2.01% in the data set with MIA PaCa-2 [14]; 93.7% in the data set on MIA PaCa-2 [16]; 5.2% in the data set on MIA PaCa-2 [17]; 0% in the data set on MIA PaCa-2 [18]. In addition, the Activity with MIA PaCa-2 [19] is 2.6%; in the data set on MIA PaCa-2 [20], 2.3%; with MIA PaCa-2 [21] it was 10.8%; in the data set on MIA PaCa-2 [22], 0.93%; in the data set on MIA PaCa-2 [25], 78.03%; in the data set on MIA PaCa-2 [26], 16.1%. The Activity is on record as 2.8% with MIA PaCa-2 [28] and 0.8% in the data set on MIA PaCa-2 [29]. The IC50 at 72 h in data set [13] amounted to 14.4 µM; in [23], 0.001 µM; in data set [27], 0.05 µM. The viability at 0.5 µM in the data set on MIA PaCa-2 [15] is 90%. Further, the half-maximal inhibitory concentration (IC50) in the data set with PANC-1 turned out to be 0.2 µM. Also, the viability at 0.1 µM in the data set with MIA PaCa-2 [24] worked out at 79.1%.

As usually defined, the IC50 is the point on the concentration scale where inhibition reaches its midpoint.
